The record followed here is US10517863B2, “Trilobine and its natural analogs for use as a drug” (PIERRE FABRE MEDICAMENT, priority 2015, dated 2019).

Test [1] deals with P15 promoter in leukaemia KG1 cells. In words: P15 (CDKN2B) promoter demethylation, bisulfite PCR cloning-sequencing. The test is classed as cell-based, human. The conditions noted are these: after 3 days, at 0.32 μM. The method, then:
(§1) Cancer cell lines (colon HCT116 or leukaemia KG1) were treated with the compounds as indicated in the Data Tables and then analysed as following.
(§2) DNA was isolated from cultured cells using the DNeasy Blood and Tissue Kit according to the manufacturer's specifications (Qiagen). DNA bisulphite conversion was performed on 2 μg of DNA using the EZ DNA Methylation-Gold Kit according to the manufacturer's specifications (Zymo Research) and bisulfited DNA was eluted with 10 μL of water. Two different techniques were used to analyse the DNA methylation profile after bisulfite conversion of genomic DNA: (A) cloning and sequencing or (B) COBRA. The primers for each promoter are specified in the Table 3.
Sequencing of bisulfite-treated DNA allowing resolution of the methylation state of every cytosine in the target sequence, at single molecule resolution, is considered as the “gold standard” for DNA methylation analysis.
Bisulfite-specific primers with a minimum length of 18 bp were designed using Primer 3 program. […]
PCR amplicons were cloned with the StrataClone Ultra Blunt PCR Cloning Kit (Agilent Technologies), according to the manufacturers' instructions and up to 24 clones were picked for sequencing. […] Electrophoregram files and methylation signals at a given CpG site were quantified using the BISMA software as described in the literature (Rohde et al. BMC Bioinformatics 2010, 11, 230).

In test [2] the test system is panel of cancer cell lines. In words: Anti-proliferative activity (ATPLite), whole panel. In kind it is cell-based. The settings on record: Homo sapiens; range over the panel. On the procedure: (§3) To measure the anti-proliferative properties of tested molecules, 2×10^4 cells are seeded at day 0 in a 96 wells plate. The compounds to be tested, stored at −20° C. as 10^−2 M stock solution in 100% DMSO, are freshly diluted on day 1 in the cell medium, before adding a dose range of 3.2 nM to 10 μM to the cells. The cell viability is assessed using the ATPLite kit from Perkin (ATPlite 1 Step Luminescence Assay System, ref 3016739), following the provider instructions. The raw data are analyzed with GraphPad Prism software (v4.03) to generate IC50 values corresponding to the compound concentrations giving 50% reduction in cell viability. The values presented are the mean results of at least two independent experiments. The standard errors are indicated.
Background: ATP-based viability assays read luminescence as a measure of living cells.

In test [3] the test system is P16 promoter in colon cancer cells HCT116. In words: P16 (CDKN2A) promoter demethylation, COBRA. The test is classed as cell-based, human. The settings on record: at 0.1 μM. On the procedure: as §1, §2
This technique is a variation of bisulfite sequencing, and combines bisulfite conversion based polymerase chain reaction with restriction digestion. DNA methylation levels are easily and quickly measured without the need for laborious and costing more time sub-cloning and sequencing, as with bisulfite sequencing.
DNA amplification was set up with 100 ng eluted bisulfited DNA in 50 μl PCR reaction containing 1×PCR buffer, 2.5 mM MgCl2, 0.3 mM dNTPs, 400 nM each primer and 1.25 units EpiTaq HS (Takara) on C1000 Touch™ thermal cycler by 98° C. for 10 sec, 55° C. for 30 sec, 72° C. for 30 sec×40 cycles. 20 μL of PCR amplicons were digested in 30 μL by 2 units of BsiEI at 60° C. for 90 min. DNA fragments were migrated by 2% agarose gel electrophoresis and each band was quantified by Image Lab Software v2.0 (BioRad Laboratories).

The subject of test [4] is KG-1. In words: Anti-proliferative activity (ATPLite). The test is classed as cell-based. The settings on record: Homo sapiens; KG-1, Leukaemia; +/− standard error; read-out: Antiproliferative activity EC50. On the procedure: as §3
The subject of test [5] is HCT-116. In words: Anti-proliferative activity (ATPLite). The conditions noted are these: Homo sapiens; HCT-116, Colorectal; +/− standard error; read-out: Antiproliferative activity EC50. The test is classed as cell-based. On the procedure: as §3
For test [6], the system named is Karpass299. In words: Anti-proliferative activity (ATPLite). The test is classed as cell-based. The settings on record: Homo sapiens; Karpass299, Lymphoma; +/− standard error; read-out: Antiproliferative activity EC50. The method, then:
as §3

`COc1ccc2cc1Oc1ccc(cc1)C[C@@H]1NCCc3cc(OC)c4c(c31)Oc1cc3c(cc1O4)CCN(C)[C@H]3C2` [Compound 1, Trilobine]: the “Demethylation (COBRA) P15/KG1” value in test [1] is −25% after 3 days. Further, the IC50 (as a rule, the concentration that inhibits the measured activity by half) in test [2] fell in the range of 0.9 to 6.8 µM. Besides, the “Demethylation (COBRA) P16/HCT116” value is on record as −37% after 3 days in test [3] (after 3 days), −52% after 7 days in test [3] (after 7 days) and −53% after 21 days in test [3] (after 21 days). The EC50 (commonly the concentration giving half of the maximal effect) is 2.2 µM in test [4], 1.2 µM in test [5] and 1.3 µM in test [6].
